System: 616215-338-R-J1-PDC complex spheroid viability
Assay: Anticancer human tumor 616215-338-R-J1-PDC patient-derived colon adenocarcinoma cell line growth inhibition [RAS]
Settings: for IC50: curve of first compound; for viability, T/C: stronger effect = lower value
Method in brief: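 Agents were tested in combination matrices in half-log decrements from a top concentration at or near clinical Cmax (10 microM if undetermined). Targets were multi-cell spheroids of tumour lines plus HUVEC and MSC stromal cells.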

[1] = second compound 0.00316 µM, first compound 0.000949 µM
[2] = second compound 0.00316 µM, first compound 0.003 µM
[3] = second compound 0.00316 µM, first compound 0.00949 µM
[4] = second compound 0.00316 µM, first compound 0.03 µM
[5] = second compound 0.00316 µM, first compound 0.0949 µM
[6] = second compound 0.00316 µM, first compound 0.3 µM
[7] = second compound 0.01 µM, first compound 0.000949 µM
[8] = second compound 0.01 µM, first compound 0.003 µM
[9] = second compound 0.01 µM, first compound 0.00949 µM
[10] = second compound 0.01 µM, first compound 0.03 µM
[11] = second compound 0.01 µM, first compound 0.0949 µM
[12] = second compound 0.01 µM, first compound 0.3 µM
[13] = second compound 0.0316 µM, first compound 0.000949 µM
[14] = second compound 0.0316 µM, first compound 0.003 µM
[15] = second compound 0.0316 µM, first compound 0.00949 µM
[16] = second compound 0.0316 µM, first compound 0.03 µM
[17] = second compound 0.0316 µM, first compound 0.0949 µM
[18] = second compound 0.0316 µM, first compound 0.3 µM
[19] = second compound 0.1 µM, first compound 0.000949 µM
[20] = second compound 0.1 µM, first compound 0.003 µM
[21] = second compound 0.1 µM, first compound 0.00949 µM
[22] = second compound 0.1 µM, first compound 0.03 µM
[23] = second compound 0.1 µM, first compound 0.0949 µM
[24] = second compound 0.1 µM, first compound 0.3 µM
[25] = second compound 0.316 µM, first compound 0.000949 µM
[26] = second compound 0.316 µM, first compound 0.003 µM
[27] = second compound 0.316 µM, first compound 0.00949 µM
[28] = second compound 0.316 µM, first compound 0.03 µM
[29] = second compound 0.316 µM, first compound 0.0949 µM
[30] = second compound 0.316 µM, first compound 0.3 µM
[31] = second compound 1 µM, first compound 0.000949 µM
[32] = second compound 1 µM, first compound 0.003 µM
[33] = second compound 1 µM, first compound 0.00949 µM
[34] = second compound 1 µM, first compound 0.03 µM
[35] = second compound 1 µM, first compound 0.0949 µM
[36] = second compound 1 µM, first compound 0.3 µM
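Note: spheroids exposed to agents for seven days before viability readout.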
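Throughout, for viability, T/C: 100% = DMSO vehicle control viability.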

## CC(=O)OC12COC1CC(O)C1(C)C(=O)C(O)C3=C(C)C(OC(=O)C(O)C(NC(=O)OC(C)(C)C)c4ccccc4)CC(O)(C(OC(=O)c4ccccc4)C21)C3(C)C (stereo unspecified) + C=CC(=O)N1CCN(c2nc(OCC3CCCN3C)nc3c(F)c(-c4nc(N)cc(C)c4C(F)(F)F)c(Cl)cc23)C(C)C1
Second compound 0.00316 µM
  IC50: < 31.6 nM
Second compound 0.01 µM
  IC50: < 31.6 nM
Second compound 0.0316 µM
  IC50: < 31.6 nM
Second compound 0.1 µM
  IC50: < 31.6 nM
Second compound 0.316 µM
  IC50: < 31.6 nM
Second compound 1 µM
  IC50: < 31.6 nM
Second compound 0.00316 µM, first compound 0.0316 µM
  viability, T/C: 28%
Second compound 0.00316 µM, first compound 0.1 µM
  viability, T/C: 22.4%
Second compound 0.00316 µM, first compound 0.316 µM
  viability, T/C: 18.4%
Second compound 0.00316 µM, first compound 1 µM
  viability, T/C: 18.6%
Second compound 0.00316 µM, first compound 3.16 µM
  viability, T/C: 18.3%
Second compound 0.00316 µM, first compound 10 µM
  viability, T/C: 24.5%
Second compound 0.01 µM, first compound 0.0316 µM
  viability, T/C: 25.3%
Second compound 0.01 µM, first compound 0.1 µM
  viability, T/C: 21.4%
Second compound 0.01 µM, first compound 0.316 µM
  viability, T/C: 17.5%
Second compound 0.01 µM, first compound 1 µM
  viability, T/C: 20.5%
Second compound 0.01 µM, first compound 3.16 µM
  viability, T/C: 18.7%
Second compound 0.01 µM, first compound 10 µM
  viability, T/C: 21.2%
Second compound 0.0316 µM, first compound 0.0316 µM
  viability, T/C: 21.3%
Second compound 0.0316 µM, first compound 0.1 µM
  viability, T/C: 23.9%
Second compound 0.0316 µM, first compound 0.316 µM
  viability, T/C: 16.5%
Second compound 0.0316 µM, first compound 1 µM
  viability, T/C: 18.5%
Second compound 0.0316 µM, first compound 3.16 µM
  viability, T/C: 20%
Second compound 0.0316 µM, first compound 10 µM
  viability, T/C: 21.9%
Second compound 0.1 µM, first compound 0.0316 µM
  viability, T/C: 24.3%
Second compound 0.1 µM, first compound 0.1 µM
  viability, T/C: 20.6%
Second compound 0.1 µM, first compound 0.316 µM
  viability, T/C: 20.6%
Second compound 0.1 µM, first compound 1 µM
  viability, T/C: 16.4%
Second compound 0.1 µM, first compound 3.16 µM
  viability, T/C: 21.1%
Second compound 0.1 µM, first compound 10 µM
  viability, T/C: 21%
Second compound 0.316 µM, first compound 0.0316 µM
  viability, T/C: 22.3%
Second compound 0.316 µM, first compound 0.1 µM
  viability, T/C: 22.3%
Second compound 0.316 µM, first compound 0.316 µM
  viability, T/C: 17.2%
Second compound 0.316 µM, first compound 1 µM
  viability, T/C: 18.5%
Second compound 0.316 µM, first compound 3.16 µM
  viability, T/C: 20.8%
Second compound 0.316 µM, first compound 10 µM
  viability, T/C: 23.9%
Second compound 1 µM, first compound 0.0316 µM
  viability, T/C: 22.4%
Second compound 1 µM, first compound 0.1 µM
  viability, T/C: 20.4%
Second compound 1 µM, first compound 0.316 µM
  viability, T/C: 18.7%
Second compound 1 µM, first compound 1 µM
  viability, T/C: 17.3%
Second compound 1 µM, first compound 3.16 µM
  viability, T/C: 23%
Second compound 1 µM, first compound 10 µM
  viability, T/C: 24.8%

## CC1(C)CCC(Nc2ncc(C(F)(F)F)c(-c3c[nH]c4c(P(C)(C)=O)c(C#N)ccc34)n2)CN1 (stereo unspecified) + C=CC(=O)N1CCN(c2nc(OCC3CCCN3C)nc3c(F)c(-c4nc(N)cc(C)c4C(F)(F)F)c(Cl)cc23)C(C)C1
Second compound 0.00316 µM
  IC50: 12.8 nM
Second compound 0.01 µM
  IC50: 11.8 nM
Second compound 0.0316 µM
  IC50: 15.1 nM
Second compound 0.1 µM
  IC50: 16.1 nM
Second compound 0.316 µM
  IC50: 16.1 nM
Second compound 1 µM
  IC50: 8.99 nM
[1]
  viability, T/C: 103%
[2]
  viability, T/C: 102%
[3]
  viability, T/C: 56.7%
[4]
  viability, T/C: 33.5%
[5]
  viability, T/C: 25.2%
[6]
  viability, T/C: 28.3%
[7]
  viability, T/C: 109%
[8]
  viability, T/C: 97.8%
[9]
  viability, T/C: 54%
[10]
  viability, T/C: 32%
[11]
  viability, T/C: 30.2%
[12]
  viability, T/C: 25.7%
[13]
  viability, T/C: 103%
[14]
  viability, T/C: 108%
[15]
  viability, T/C: 62.3%
[16]
  viability, T/C: 35.4%
[17]
  viability, T/C: 29.2%
[18]
  viability, T/C: 31%
[19]
  viability, T/C: 106%
[20]
  viability, T/C: 101%
[21]
  viability, T/C: 64%
[22]
  viability, T/C: 33.8%
[23]
  viability, T/C: 27.8%
[24]
  viability, T/C: 27.6%
[25]
  viability, T/C: 102%
[26]
  viability, T/C: 97.3%
[27]
  viability, T/C: 61.9%
[28]
  viability, T/C: 36.6%
[29]
  viability, T/C: 29.1%
[30]
  viability, T/C: 28.7%
[31]
  viability, T/C: 99.7%
[32]
  viability, T/C: 94.1%
[33]
  viability, T/C: 47.7%
[34]
  viability, T/C: 33.8%
[35]
  viability, T/C: 34.7%
[36]
  viability, T/C: 28.4%

## CCc1c2c(nc3ccc(O)cc13)-c1cc3c(c(=O)n1C2)COC(=O)[C@]3(O)CC + C=CC(=O)N1CCN(c2nc(OCC3CCCN3C)nc3c(F)c(-c4nc(N)cc(C)c4C(F)(F)F)c(Cl)cc23)C(C)C1
Second compound 0.00316 µM
  IC50: 8.93 nM
Second compound 0.01 µM
  IC50: 8.71 nM
Second compound 0.0316 µM
  IC50: 13.8 nM
Second compound 0.1 µM
  IC50: 9.38 nM
Second compound 0.316 µM
  IC50: 14.1 nM
Second compound 1 µM
  IC50: 8.32 nM
[1]
  viability, T/C: 98%
[2]
  viability, T/C: 103%
[3]
  viability, T/C: 47.2%
[4]
  viability, T/C: 27%
[5]
  viability, T/C: 20.6%
[6]
  viability, T/C: 16.9%
[7]
  viability, T/C: 99.3%
[8]
  viability, T/C: 106%
[9]
  viability, T/C: 45.8%
[10]
  viability, T/C: 30.2%
[11]
  viability, T/C: 23.6%
[12]
  viability, T/C: 17.6%
[13]
  viability, T/C: 107%
[14]
  viability, T/C: 115%
[15]
  viability, T/C: 59.9%
[16]
  viability, T/C: 32.5%
[17]
  viability, T/C: 18.4%
[18]
  viability, T/C: 14.9%
[19]
  viability, T/C: 112%
[20]
  viability, T/C: 109%
[21]
  viability, T/C: 48.5%
[22]
  viability, T/C: 29.4%
[23]
  viability, T/C: 20.1%
[24]
  viability, T/C: 16.5%
[25]
  viability, T/C: 110%
[26]
  viability, T/C: 98.1%
[27]
  viability, T/C: 57.7%
[28]
  viability, T/C: 32.4%
[29]
  viability, T/C: 16.3%
[30]
  viability, T/C: 12.8%
[31]
  viability, T/C: 106%
[32]
  viability, T/C: 110%
[33]
  viability, T/C: 42.5%
[34]
  viability, T/C: 28.2%
[35]
  viability, T/C: 22.9%
[36]
  viability, T/C: 15.4%

Source: PubChem BioAssay AID2060898 (Molecular Pharmacology Branch, DTP, NCI, 2025)
